In US20210269453A1, “Bryoid Compositions, Methods of Making and Use Thereof” (Aphios Corporation, priority 2018, published 2021):

System: alpha-secretase
Experiment: Effect of purified Bryoids on alpha-secretase activity in SHSY-5Y neuroblastoma cells (FIG. 10)
Type: cell-based
Conditions: 10-^9M, FIG. 10, relative to Bryostatin-1
From the text: FIG. 10 depicts the effect of Bryostatin-1 and different Bryoids at 10-^9M on alpha-secretase activity in SHSY-5Y neuroblastoma cells;
Purified Bryoids at 10-^9M are shown to increase alpha-secretase activity in SHSY-5Y neuroblastoma cells in FIG. 10.

Compound | alpha-secretase activity
CCC/C=C/C=C/C(=O)O[C@H]1[C@H]2C=C3C[C@H]([C@@H](C)O)OC(=O)C[C@H](O)C[C@@H]4C[C@H](OC(C)=O)C(C)(C)[C@](O)(C[C@@H]5C/C(=C\C(=O)OC)C[C@H](/C=C/C(C)(C)[C@]1(OC(=O)C2)O3)O5)O4 [Bryoid B3, Bryostatin-3] | improve the production of alpha-secretase over Bryostatin-1
bryostatin-3 26-ketone [Bryoid B16] | improve the production of alpha-secretase over Bryostatin-1
